Measured values: patent US9493441B2, “Acyclic cyanoethylpyrazoles as janus kinase inhibitors” (Merck Sharp & Dohme Corp., priority 2011, dated 2016)
Read-outs that look alike come from different tables or passages of the source.

What was measured:
JAK1 = JAK1 (Homo sapiens (Human), UniProt P23458); assay: Jak biochemical HTRF assay, JAK1
JAK2 = JAK2 (Homo sapiens (Human), UniProt O60674); assay: Jak biochemical HTRF assay, JAK2
[1] = JAK1 IC50 (nM), recombinant GST-tagged catalytic domain, [ATP] 31.8 μM
[2] = JAK2 IC50 (nM), recombinant GST-tagged catalytic domain, [ATP] […]
[3] = read-out: JAK1 IC50, recombinant GST-tagged catalytic domain, [ATP] 31.8 μM
[4] = read-out: JAK2 IC50, recombinant GST-tagged catalytic domain, [ATP] […]

Chain of JAK1 (P23458 875-1153): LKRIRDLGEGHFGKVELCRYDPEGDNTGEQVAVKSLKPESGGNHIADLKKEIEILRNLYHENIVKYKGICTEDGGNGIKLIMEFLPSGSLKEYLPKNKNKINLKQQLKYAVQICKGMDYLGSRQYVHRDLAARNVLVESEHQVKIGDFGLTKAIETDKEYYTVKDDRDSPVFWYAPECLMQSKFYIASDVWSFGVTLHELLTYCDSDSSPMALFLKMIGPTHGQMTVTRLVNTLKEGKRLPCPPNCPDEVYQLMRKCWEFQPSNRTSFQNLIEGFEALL
Chain of JAK2 (O60674 849-1124): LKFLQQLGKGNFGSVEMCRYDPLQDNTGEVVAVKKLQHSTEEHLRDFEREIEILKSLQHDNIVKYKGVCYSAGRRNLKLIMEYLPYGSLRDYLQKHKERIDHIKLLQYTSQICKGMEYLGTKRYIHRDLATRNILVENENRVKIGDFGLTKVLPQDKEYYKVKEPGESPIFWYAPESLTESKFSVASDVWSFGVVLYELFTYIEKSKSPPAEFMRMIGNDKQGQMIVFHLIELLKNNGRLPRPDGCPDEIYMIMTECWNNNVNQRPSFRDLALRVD

## N#CCC(C1CC1)n1cc(C(N)=O)c(Nc2cccnc2)n1 (stereo not drawn) [Example 4-6, 1-(2-cyano-1-cyclopropylethyl)-3 - (pyridin-3-ylamino)-1H-pyrazole-4-carboxamide]
JAK1; [1]
  IC50: 33 nM
JAK2; [2]
  IC50: 76 nM

## N#CCC(C1CC1)n1cc(C(N)=O)c(Nc2ccc(N3CCOCC3)cc2)n1 (stereo not drawn) [Example 4-17, 1-(2-cyano-1-cyclopropylethyl)-3-[(4-morpholin-4-ylphenyl)amino]-1H-pyrazole-4-carboxamide]
JAK1; [1]
  IC50: 13 nM
JAK2; [2]
  IC50: 43 nM

## N#CC[C@@H](C1CCN(C(=O)OC2CCCCC2)CC1)n1cc(C(N)=O)c(Nc2ccc(F)cc2)n1 (single isomer, unassigned) [Example 12-5, cyclohexyl 4-[(1S or 1R)-1-{4-carbamoyl-3-[(4-fluorophenyl)amino]-1H-pyrazol-1-yl}-2-cyanoethyl]piperidine-1-carboxylate]
JAK1; [1]
  IC50: 628 nM
JAK2; [2]
  IC50: 1500 nM

## N#CCC(CC1CCOCC1)n1cc(C(N)=O)c(Nc2ccccc2)n1 (stereo not drawn) [Example 1-10, 1-[2-cyano-1-(tetrahydro-2H-pyran-4-ylmethyl)ethyl]-3-(phenylamino)-1H-pyrazole-4-carboxamide]
JAK1; [1]
  IC50: 289 nM
JAK2; [2]
  IC50: 1480 nM

## N#CCC(C1CCOC1)n1cc(C(N)=O)c(Nc2ccccc2)n1 (stereo not drawn) [Example 1-14, 1-[2-cyano-1-(tetrahydrofuran-3-yl)ethyl]-3-(phenylamino)-1H-pyrazole-4-carboxamide]
JAK1; [1]
  IC50: 126 nM
JAK2; [2]
  IC50: 1400 nM

## CC[C@@H](CC#N)n1cc(C(N)=O)c(Nc2ccccc2)n1 (single isomer, unassigned) [Example 16-2, 1-[(1R or 1S)-1-(cyanomethyl)propyl]-3-(phenylamino)-1H-pyrazole-4-carboxamide]
JAK1; [3]
  IC50: 136 nM
JAK2; [4]
  IC50: 800 nM

## CC(C)(C)OC(=O)N1Cc2cc(Nc3nn(C(CC#N)C4CC4)cc3C(N)=O)ccc2C1=O (stereo not drawn) [Example 4-2, tert-butyl 5-{[4-carbamoyl-1-(2-cyano-1-cyclopropylethyl)-1H-pyrazol-3-yl]amino}-1-oxo-1,3-dihydro-2H-isoindole-2-carboxylate]
JAK1; [1]
  IC50: 2 nM
JAK2; [2]
  IC50: 35 nM

## N#CCC(C1CC1)n1cc(C(N)=O)c(Nc2cncc(C#N)c2)n1 (stereo not drawn) [Example 4-18, 1-(2-cyano-1-cyclopropylethyl)-3-[(5-cyanopyridin-3-yl)amino]-1H-pyrazole-4-carboxamide]
JAK1; [1]
  IC50: 131 nM
JAK2; [2]
  IC50: 425 nM

## N#CCC(C1CC1)n1cc(C(N)=O)c(Nc2ccccc2F)n1 (stereo not drawn) [Example 4-5, 1-(2-cyano-1-cyclopropylethyl)-3-[(2-fluorophenyl)amino]-1H-pyrazole-4-carboxamide]
JAK1; [1]
  IC50: 360 nM
JAK2; [2]
  IC50: 1480 nM

## N#CC[C@@H](C1CCN(C(=O)OCC2CCOC2)CC1)n1cc(C(N)=O)c(Nc2ccc(F)cc2)n1 (stereo partly drawn) [Example 11-12, tetrahydrofuran-3-ylmethyl 4-[(1S)-1-{4-carbamoyl-3-[(4-fluorophenyl)amino]-1H-pyrazol-1-yl}-2-cyanoethyl]piperidine-1-carboxylate]
JAK1; [1]
  IC50: 181 nM
JAK2; [2]
  IC50: 1500 nM

## CC(CC#N)n1cc(C(N)=O)c(Nc2ccccc2)n1 (stereo not drawn) [Example 1-6, 1-(2-cyano-1-methylethyl)-3-(phenylamino)-1H-pyrazole-4-carboxamide]
JAK1; [1]
  IC50: 61 nM
JAK2; [2]
  IC50: 417 nM

## CC(C)(C)OC(=O)N1CCC(C(CC#N)n2cc(C(N)=O)c(Nc3ccc(F)cc3)n2)CC1 (stereo not drawn) [Example 3-1, tert-Butyl 4-(1-[4-carbamoyl-3-[(4-fluorophenyl)amino]-1H-pyrazol-1-yl]-2-cyanoethyl)piperidine-1-carboxylate]
JAK1; [1]
  IC50: 49 nM
JAK2; [2]
  IC50: 1500 nM

## Cc1c(Cl)ncnc1N1CCC([C@H](CC#N)n2cc(C(N)=O)c(Nc3ccc(F)cc3)n2)CC1 [Example 13, 1-{(1S)-1-[1-(6-Chloro-5-methylpyrimidin-4-yl)piperidin-4-yl]-2-cyanoethyl}-3-[(4-fluorophenyl)amino]-1H-pyrazole-4-carboxamide]
JAK1; [1]
  IC50: 823 nM
JAK2; [2]
  IC50: 1500 nM

## N#CCC(C1CC1)n1cc(C(N)=O)c(Nc2ccc3c(c2)OCCO3)n1 (stereo not drawn) [Example 4-20, 1-(2-cyano-1-cyclopropylethyl)-3-(2,3-dihydro-1,4-benzodioxin-6-ylamino)-1H-pyrazole-4-carboxamide]
JAK1; [1]
  IC50: 24 nM
JAK2; [2]
  IC50: 87 nM

## N#CCC(C1CC1)n1cc(C(N)=O)c(Nc2ccc(C#N)cc2)n1 (stereo not drawn) [Example 4-14, 1-(2-cyano-1-cyclopropylethyl)-3-[(4-cyanophenyl)amino]-1H-pyrazole-4-carboxamide]
JAK1; [1]
  IC50: 5 nM
JAK2; [2]
  IC50: 33 nM

## N#CCC(C1CC1)n1cc(C(N)=O)c(Nc2ccc3c(c2)CCS3(=O)=O)n1 (stereo not drawn) [Example 5, 1-(2-Cyano-1-cyclopropylethyl)-3-[(1,1-dioxido-2,3-dihydro-1-benzothiophen-5-yl)amino]-1H-pyrazole-4-carboxamide]
JAK1; [1]
  IC50: 1 nM
JAK2; [2]
  IC50: 15 nM

## Cc1nc(-c2ccc(Nc3nn(C(CC#N)C4CC4)cc3C(N)=O)cc2)no1 (stereo not drawn) [Example 4-26, 1-(2-cyano-1-cyclopropylethyl)-3-{[4-(5-methyl-1,2,4-oxadiazol-3-yl)phenyl]amino}-1H-pyrazole-4-carboxamide]
JAK1; [1]
  IC50: 65 nM
JAK2; [2]
  IC50: 277 nM

## N#CCC(C1CC1)n1cc(C(N)=O)c(Nc2ccc3c(c2)CN(CC(F)(F)F)C3=O)n1 (stereo not drawn) [Example 4-31, 1-(2-cyano-1-cyclopropylethyl)-3-{[1-oxo-2-(2,2,2-trifluoroethyl)-2,3-dihydro-1H-isoindol-5-yl]amino}-1H-pyrazole-4-carboxamide]
JAK1; [1]
  IC50: 2 nM
JAK2; [2]
  IC50: 7 nM

## Cc1noc(-c2ccc(Nc3nn([C@H](CC#N)C4CC4)cc3C(N)=O)cc2)n1 (single isomer, unassigned) [Example 18-1, 1-[(1R or 1S)-2-cyano-1-cyclopropylethyl]-3-{[4-(3-methyl-1,2,4-oxadiazol-5-yl)phenyl]amino}-1H-pyrazole-4-carboxamide]
JAK1; [3]
  IC50: 2 nM
JAK2; [4]
  IC50: 19 nM

## CN1C(=O)c2ccc(Nc3nn(C(CC#N)C4CC4)cc3C(N)=O)cc2C1(C)C (stereo not drawn) [Example 4-30, 1-(2-cyano-1-cyclopropylethyl)-3-[(2,3,3-trimethyl-1-oxo-2,3-dihydro-1H-isoindol-5-yl)amino]-1H-pyrazole-4-carboxamide]
JAK1; [1]
  IC50: 15 nM
JAK2; [2]
  IC50: 226 nM

## N#CC[C@@H](C1CCN(C(=O)OC2CCCC2)CC1)n1cc(C(N)=O)c(Nc2ccc(F)cc2)n1 [Example 11-6, cyclopentyl 4-[(1S)-1-{4-carbamoyl-3-[(4-fluorophenyl)amino]-1H-pyrazol-1-yl}-2-cyanoethyl]piperidine-1-carboxylate]
JAK1; [1]
  IC50: 69 nM
JAK2; [2]
  IC50: 1200 nM

## N#CC[C@@H](C1CCN(C(=O)OCC2CC2)CC1)n1cc(C(N)=O)c(Nc2ccc(F)cc2)n1 [Example 11-10, cyclopropylmethyl 4-[(1S)-1-{4-carbamoyl-3-[(4-fluorophenyl)amino]-1H-pyrazol-1-yl}-2-cyanoethyl]piperidine-1-carboxylate]
JAK1; [1]
  IC50: 44 nM
JAK2; [2]
  IC50: 1160 nM

## CC(CC#N)n1cc(C(N)=O)c(Nc2ccc(S(C)(=O)=O)cc2)n1 (stereo not drawn) [Example 10, 1-(2-Cyano-1-methylethyl)-3-{[4-(methylsulfonyl)phenyl]amino}-1H-pyrazole-4-carboxamide]
JAK1; [1]
  IC50: 7 nM
JAK2; [2]
  IC50: 45 nM

## CCC(CC#N)n1cc(C(N)=O)c(Nc2ccccc2)n1 (stereo not drawn) [Example 1-7, 1-[1-(cyanomethyl)propyl]-3-(phenylamino)-1H-pyrazole-4-carboxamide]
JAK1; [1]
  IC50: 48 nM
JAK2; [2]
  IC50: 546 nM

## N#CC[C@@H](C1CC1)n1cc(C(N)=O)c(Nc2ccnc(F)c2)n1 (single isomer, unassigned) [Example 17-5, 1-[(1R or 1S)-2-cyano-1-cyclopropylethyl]-3-[(2-fluoropyridin-4-yl)amino]-1H-pyrazole-4-carboxamide]
JAK1; [1]
  IC50: 16 nM
JAK2; [2]
  IC50: 190 nM

## N#CCc1cccc(Nc2nn(C(CC#N)C3CC3)cc2C(N)=O)c1 (stereo not drawn) [Example 4-9, 1-(2-cyano-1-cyclopropylethyl)-3-{[3-(cyanomethyl)phenyl]amino}-1H-pyrazole-4-carboxamide]
JAK2; [2]
  IC50: 27 nM

## N#CCC(C1CC1)n1cc(C(N)=O)c(Nc2ccc(-c3cnco3)cc2)n1 (stereo not drawn) [Example 4-24, 1-(2-cyano-1-cyclopropylethyl)-3-{[4-(1,3-oxazol-5-yl)phenyl]amino}-1H-pyrazole-4-carboxamide]
JAK1; [1]
  IC50: 41 nM
JAK2; [2]
  IC50: 262 nM

## CN(C)CCOC(=O)N1CCC([C@H](CC#N)n2cc(C(N)=O)c(Nc3ccc(F)cc3)n2)CC1 (stereo in doubt) [Example 11-1, 2-(Dimethylamino)ethyl 4-(1-{4-carbamoyl-3-[(4-fluorophenyl)amino]-1H-pyrazol-1-yl}-2-cyanoethyl)piperidine-1-carboxylate]
JAK1; [1]
  IC50: 959 nM
JAK2; [2]
  IC50: 1500 nM

## CC(C)(O)c1cn(Cc2cccc(Nc3nn(C(CC#N)C4CCCC4)cc3C(N)=O)c2)nn1 (stereo not drawn) [Example 1-8, 1-(2-cyano-1-cyclopentylethyl)-3-[(3-{[4-(1-hydroxy-1-methylethyl)-1H-1,2,3-triazol-1-yl]methyl}phenyl)amino]-1H-pyrazole-4-carboxamide]
JAK1; [1]
  IC50: 194 nM
JAK2; [2]
  IC50: 999 nM

## N#CC[C@@H](C1CC1)n1cc(C(N)=O)c(Nc2ccc3c(c2)CNC3=O)n1 (single isomer, unassigned) [Example 19-2, 1-[(1R or 1S)-2-cyano-1-cyclopropylethyl]-3-[(1-oxo-2,3-dihydro-1H-isoindol-5-yl)amino]-1H-pyrazole-4-carboxamide]
JAK2; [4]
  IC50: 105 nM

## N#CCC(C1CC1)n1cc(C(N)=O)c(Nc2ccc3c(c2)CNC3=O)n1 (stereo not drawn) [Example 7, 1-(2-Cyano-1-cyclopropylethyl)-3-[(1-oxo-2,3-dihydro-4H-isoindol-5-yl)amino]-1H-pyrazole-4-carboxamide]
JAK2; [2]
  IC50: 38 nM

## N#CC[C@H](C1CC1)n1cc(C(N)=O)c(Nc2ccc3c(c2)CNC3=O)n1 (single isomer, unassigned) [Example 19-1, 1-[(1R or 1S)-2-cyano-1-cyclopropylethyl]-3-[(1-oxo-2,3-dihydro-1H-isoindol-5-yl)amino]-1H-pyrazole-4-carboxamide]
JAK2; [4]
  IC50: 15 nM
